From US11912688B2, “1, 3-dioxolane derivative” (TOHOKU UNIVERSITY, priority 2019, dated 2024)

Assays:
iNOS transgenic mice [1] = assay: Test using mice developing diabetic nephropathy (iNOS transgenic mice); assay type: in vivo, mouse; settings: 6 mg/kg/day oral
Description: iNOS transgenic mice (Takamura T. et al., J Biol Chem. 1998; 273: 2493-2496; received from Emeritus Professor Hiroshi Okamoto, Tohoku University) were used as model mice. According to the literature of Takamura et al., breeding in which 4-week-old model mice (experimental group: n=8, control group: n=6) and a wild type group (n=8), which is non-transgenic mice born simultaneously with the model mice by mating iNOS transgenic mice and wild type (CD1 (ICR)) mice, were fed with high protein and high calorie diets was performed for 13 weeks. Compound 12 (D-532) was further orally administered to the experimental group in 6 mg/kg/day. As to the groups, the body weights were measured every day, and the blood sugar levels, the albumin in urine, and the creatinine in urine were measured in accordance with the usual method every 3 weeks. The groups were sacrificed after the breeding, the serum creatinine in the blood collected from the abdominal vena cava at the time of dissection was measured, and the gene expression in the kidneys collected at the time of dissection was analyzed. The kidney tissues were stained with HE and PAS and observed.
Further, the […] tissue section images were subjected to ImageJ (http://imagej.nih.gov/ij/) and measured according to the operation manual attached to ImageJ. When each glomerulus area (each group, n=100) and an area obtained by excluding regions of no interest such as vascular lumens and nuclei from the each glomerulus area were found, and the ratio therebetween, namely the PAS-positive area ratio in glomeruli, was found, the ratio increased in the model mice, and the improvement was meanwhile confirmed in the administered group.

ChREBP [2] = assay: ChREBP target gene expression analysis in the kidney by quantitative PCR (iNOS mice); assay type: in vivo, mouse; settings: iNOS mice of Test Example 3, quantitative PCR
Procedure: (§1) In the mice used in Test Example 3, the expression variations of ChREBPβ and the TXNIP genes, which are target genes of ChREBP in the kidney, were analyzed by quantitative PCR in the method of the previous report (Genes to Cells 19 (2013) 52-65). The following primer set was used for the amplification of ChREBPβ.
A primer set used for the amplification of the TXNIP gene is as mentioned above.

iNOS transgenic mice [3] = assay: Observation of mouse kidney tissues by transmission electron microscope (iNOS mice); assay type: in vivo; settings: iNOS mice of Test Example 3, transmission electron microscope; FIG. 16C
Procedure: The kidneys of model mice in the administered group and the non-administered group, and a mouse in the wild type group in Test Example 3 were placed in a prefixing solution containing 2% PFA (FUJIFILM Wako Pure Chemical Corporation; 163-20145)/2.5% glutaraldehyde (TAAB Laboratories Equipment Ltd.; G017/1)/0.1 M cacodylate buffer solution (FUJIFILM Wako Pure Chemical Corporation; 036-18175) and treated at room temperature for 2 hours. The prefixed kidneys were washed with 0.1 M cacodylate buffer solution (containing 8% sucrose (FUJIFILM Wako Pure Chemical Corporation: 196-00015)) on ice for 15 minutes×4 times and treated with postfixing solution containing 1% osmium tetroxide (FUJIFILM Wako Pure Chemical Corporation; 154-01014) on ice for 90 minutes. The postfixed kidneys were washed with ultrapure water for 15 minutes×3 times, placed in aqueous 50, 60, 70, 80, 90, and 95% ethanol solutions each for 10 minutes×1 time, further in 100% ethanol for 20 minutes×3 times, and subjected to ethanol dehydration. […]

ChREBP [4] = assay: ChREBP target gene expression analysis in the kidney by quantitative PCR (db/db mice); assay type: in vivo, mouse; settings: db/db mice of Test Example 7, quantitative PCR
Procedure: as §1
In the mice used in Test Example 7, ChREBP target gene expression analysis was performed by the same method as in Test Example 4. FIG. 22 and FIG. 23 show the results.

db/db mice = assay: Relationship between blood sugar level and amount of albumin excreted in urine (ACR), regression lines, db/db mice; assay type: in vivo, mouse; settings: experimental vs control group, least squares regression, FIG. 25
Description: As to the blood sugar levels and the amounts of albumin excreted in urine (ACR) of the experimental group and the control group (non-administered group of db/db mice) in Test Example 7, a scatter diagram was created using SPSS, which is statistical analysis software, so that the abscissa axis is the blood sugar level, and the ordinate axis is the ACR, and regression lines (linear approximation by the least squares method) were found.

## c1ccc(COC[C@H]2CO[C@@](Cn3nnc4ccccc43)(c3ccccc3)O2)cc1 [Example D-532, 1-(((2S,4S)-4-((benzyloxy)methyl)-2-phenyl-1,3-dioxolan-2-yl)methyl)-1H-benzo[d][1,2,3]triazole]
iNOS transgenic mice [1]; 13 weeks, vs control group, FIG. 4
  blood sugar level: significantly low value as compared with the control group
iNOS transgenic mice [1]; 13 weeks, vs control group, FIG. 5
  amount of albumin excreted in urine: significant low value
iNOS transgenic mice [1]; at dissection, FIG. 6
  increase in blood creatinine: significantly improved
ChREBP [2]; FIG. 10
  expression of ChREBPβ gene in the kidney: decrease in expression
ChREBP [2]; FIG. 11
  expression of TXNIP gene in the kidney: decrease in expression
iNOS transgenic mice [3]
  structure of foot processes in kidney tissue: suppressed the structural change of the foot processes
ChREBP [4]; FIG. 22
  expression of ChREBPβ gene in the kidney: Decrease in the expression
ChREBP [4]; FIG. 23
  expression of TXNIP gene in the kidney: Decrease in the expression
db/db mice
  effect on ACR relative to blood sugar level (gradient of the regression line): direct effect on the kidney
